Experimental data from publication PMC5052559, “A fragment-based approach applied to a highly flexible target: Insights and challenges towards the inhibition of HSP70 isoforms” (Scientific Reports, 2016).

How the values were obtained:
[1] = biological target: T1, S275W HSC70-NBD (Homo sapiens, UniProt P11142, S275W); assay: SPR binding to S275W HSC70-NBD mutant
T1 construct: WT HSPA8 (HSC70) residues 1 to 381; GST (N, cleaved yes); made in house; host or cells: E. coli BL21-AI (expressed as described for FL-HSP72)
T1 sequence (P11142 1-381 S275W): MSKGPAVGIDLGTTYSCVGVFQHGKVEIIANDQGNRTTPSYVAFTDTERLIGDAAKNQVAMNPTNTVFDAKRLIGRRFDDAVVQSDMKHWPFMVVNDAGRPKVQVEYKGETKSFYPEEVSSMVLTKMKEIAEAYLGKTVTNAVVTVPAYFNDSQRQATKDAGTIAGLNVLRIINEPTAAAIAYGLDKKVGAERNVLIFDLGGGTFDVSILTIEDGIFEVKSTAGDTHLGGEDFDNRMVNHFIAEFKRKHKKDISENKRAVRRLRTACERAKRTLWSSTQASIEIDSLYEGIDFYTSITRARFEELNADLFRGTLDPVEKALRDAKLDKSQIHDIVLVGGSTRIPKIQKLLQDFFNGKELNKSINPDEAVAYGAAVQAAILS
Method: (§1) SPR experiments were carried out using a Biacore T200 (GE Healthcare) at 25 °C. Amine coupling chemistry was used to immobilise the HSC70 NBD domain and S275W, S275F and S275A HSC70-NBD mutant proteins on a carboxymethyl-5′-dextran (CM5) sensor chip. The chip’s surface was activated with a 10 min injection of a 1:1 mixture of 100 mM N-hydroxysuccinimide and 400 mM 1-ethyl-3-(3-dimethylaminopropyl)-carbodiimide. […] The remaining activated groups on the surface were blocked with a 7 min injection of 1 M ethanolamine at pH 8.5. […] Flow cell one was left unmodified as the reference surface.
(§2) In addition, a DMSO correction curve, prepared as described in the GE manual, was used to correct the effects of the solvent on signal intensity. Raw SPR data from the single point screen was processed and analysed using Pipeline Pilot version 8.0.1.500[37]. Firstly, the reported binding level for each fragment was corrected by subtraction of the buffer blank.
(§3) The initial fragment hits were further investigated in a three-point concentration-response experiment against freshly immobilised WT HSC70-NBD and the S275W HSC70-NBD mutants using the same experimental protocol as for the primary screen. Compound dilutions of 50, 100 and 200 μM were generated using the ECHO 550.

[2] = biological target: HSP70; design: method as in PMID 19256508; conditions: read-out: SPR Kd; cited from earlier work
[3] = biological target: T2, S275F HSC70-NBD (Homo sapiens, UniProt P11142, S275F); assay: SPR binding to S275F HSC70-NBD mutant
T2 construct: WT HSPA8 (HSC70) residues 1 to 381; GST (N, cleaved yes); made in house; host or cells: E. coli BL21-AI (expressed as described for FL-HSP72)
T2 sequence (P11142 1-381 S275F): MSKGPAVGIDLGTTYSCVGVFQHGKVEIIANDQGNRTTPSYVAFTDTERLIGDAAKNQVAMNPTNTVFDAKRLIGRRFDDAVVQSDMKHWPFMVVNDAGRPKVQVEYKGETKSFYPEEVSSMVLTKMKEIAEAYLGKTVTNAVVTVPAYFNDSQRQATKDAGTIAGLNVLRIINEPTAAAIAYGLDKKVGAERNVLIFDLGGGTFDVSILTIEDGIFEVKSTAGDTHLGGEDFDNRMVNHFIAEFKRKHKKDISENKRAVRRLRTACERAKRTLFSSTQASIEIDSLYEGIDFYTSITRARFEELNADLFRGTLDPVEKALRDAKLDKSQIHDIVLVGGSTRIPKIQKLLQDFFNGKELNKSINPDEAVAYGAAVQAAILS
Method: SPR experiments were carried out using a Biacore T200 (GE Healthcare) at 25 °C. Amine coupling chemistry was used to immobilise the HSC70 NBD domain and S275W, S275F and S275A HSC70-NBD mutant proteins on a carboxymethyl-5′-dextran (CM5) sensor chip. The chip’s surface was activated with a 10 min injection of a 1:1 mixture of 100 mM N-hydroxysuccinimide and 400 mM 1-ethyl-3-(3-dimethylaminopropyl)-carbodiimide. The HSC70 proteins (70 μg/mL in 10 mM sodium acetate, 750 μM ADP, pH 5.0) were immobilised on the surface over a 10 min injection period. The remaining activated groups on the surface were blocked with a 7 min injection of 1 M ethanolamine at pH 8.5. For all the above procedures the flow rate was maintained at 10 μL/min and a 1x phosphate buffered saline running buffer (PBS running buffer: 10 mM NaHPO4/NaH2PO4 pH 7.4, 2.7 mM KCl, 137 mM NaCl) was used during immobilisation. Approximately ~13,000 response units (RU) of protein could be routinely captured on the CM5 chip on flow cells two to four. Flow cell one was left unmodified as the reference surface. Our in-house fragment library of 1962 fragments at a stock concentration of 100 mM in 100% (v/v) was screened. SPR screening plates were prepared by dispensing of 0.1 μL of each fragment in 384-well polypropylene V-bottomed plates (Greiner) using an ECHO 550 acoustic liquid dispenser (Labcyte) followed by addition of fresh DMSO and running buffer to give a final fragment concentration of 125 μM in 5% (v/v) DMSO in an assay volume of 80 μL.
The full fragment screen was carried out against freshly immobilised WT-HSC70 NBD and the S275W and S275F HSC70-NBD mutants, using the same experimental setting as for the clean screen and a final fragment concentration of 125 μM. Injections of running buffer and of 125 μM adenosine, which was used as a positive control to monitor the health of the protein, were carried out at intervals of 35 cycles throughout the screen. In addition, a DMSO correction curve, prepared as described in the GE manual, was used to correct the effects of the solvent on signal intensity. Raw SPR data from the single point screen was processed and analysed using Pipeline Pilot version 8.0.1.500[37]. Firstly, the reported binding level for each fragment was corrected by subtraction of the buffer blank. Secondly, the values were corrected for the molecular weight of each fragment and the binding was normalised to the binding level observed for the closest adenosine control. […] However, fragments with a binding level exceeding two times the theoretical Rmax were excluded, as we considered this an indication of superstoichiometric binding. Finally, fragments showing preferred binding to wild-type HSC70-NBD versus the HSC70-NBD mutants with a blocked adenine sub pocket were identified by plotting the binding levels of the fragments to wild-type HSC70-NBD against the binding levels of the respective mutant HSC70-NBD variants and added to the primary hit list. In total this procedure yielded 54 initial fragment hits.

[4] = biological target: T3, WT HSC70-NBD (Homo sapiens, UniProt P11142); assay: SPR binding to wild-type HSC70-NBD; conditions: for Kd: SPR, 25 °C; for LE (ligand efficiency): calculated using the SPR Kd on WT HSC70-NBD
T3 construct: WT HSPA8 (HSC70) residues 1 to 381; GST (N, cleaved yes); made in house; host or cells: E. coli BL21-AI (expressed as described for FL-HSP72)
T3 sequence (P11142 1-381): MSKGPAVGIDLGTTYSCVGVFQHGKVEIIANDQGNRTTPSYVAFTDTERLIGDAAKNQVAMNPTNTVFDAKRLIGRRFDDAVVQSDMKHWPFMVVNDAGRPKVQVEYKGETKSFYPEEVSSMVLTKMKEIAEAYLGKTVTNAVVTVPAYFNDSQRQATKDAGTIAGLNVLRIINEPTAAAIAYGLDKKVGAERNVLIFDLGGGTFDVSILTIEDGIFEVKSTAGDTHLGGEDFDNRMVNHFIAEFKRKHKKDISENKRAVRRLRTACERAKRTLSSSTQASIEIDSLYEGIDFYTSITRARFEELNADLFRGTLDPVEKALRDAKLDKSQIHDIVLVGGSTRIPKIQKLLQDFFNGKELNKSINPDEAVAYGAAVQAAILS
Method: as §1, §2, §3

[5] = biological target: T4, HSC70-NBD S275A mutant (Homo sapiens, UniProt P11142, S275A); assay: SPR binding to S275A HSC70-NBD mutant; conditions: n = 3
T4 construct: WT HSPA8 (HSC70) residues 1 to 381; GST (N, cleaved yes); made in house; host or cells: E. coli BL21-AI (expressed as described for FL-HSP72)
T4 sequence (P11142 1-381 S275A): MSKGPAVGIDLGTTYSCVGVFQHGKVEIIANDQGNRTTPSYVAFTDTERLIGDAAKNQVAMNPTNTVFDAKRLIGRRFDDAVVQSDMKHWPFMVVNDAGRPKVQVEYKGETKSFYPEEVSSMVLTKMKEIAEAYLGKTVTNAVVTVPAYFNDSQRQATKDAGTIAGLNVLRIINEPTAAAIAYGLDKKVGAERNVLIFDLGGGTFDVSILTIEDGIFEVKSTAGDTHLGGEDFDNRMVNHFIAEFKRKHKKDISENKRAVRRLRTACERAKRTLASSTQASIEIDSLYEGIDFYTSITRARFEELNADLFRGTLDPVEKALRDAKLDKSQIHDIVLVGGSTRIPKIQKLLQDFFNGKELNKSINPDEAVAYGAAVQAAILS
Method: SPR experiments were carried out using a Biacore T200 (GE Healthcare) at 25 °C. Amine coupling chemistry was used to immobilise the HSC70 NBD domain and […], […] and […] HSC70-NBD mutant proteins on a carboxymethyl-5'-dextran (CM5) sensor chip. […] The remaining activated groups on the surface were blocked with a 7 min injection of 1 M ethanolamine at pH 8.5. For all the above procedures the flow rate was maintained at 10 μL/min and a 1x phosphate buffered saline running buffer (PBS running buffer: 10 mM NaHPO4/NaH2PO4 pH 7.4, 2.7 mM KCl, 137 mM NaCl) was used during immobilisation. Approximately ~13,000 response units (RU) of protein could be routinely captured on the CM5 chip on flow cells two to four. Flow cell one was left unmodified as the reference surface. Our in-house fragment library of 1962 fragments at a stock concentration of 100 mM in 100% (v/v) was screened. SPR screening plates were prepared by dispensing of 0.1 μL of each fragment in 384-well polypropylene V-bottomed plates (Greiner) using an ECHO 550 acoustic liquid dispenser (Labcyte) followed by addition of fresh DMSO and running buffer to give a final fragment concentration of 125 μM in 5% (v/v) DMSO in an assay volume of 80 μL. The initial fragment hits were further investigated in a three-point concentration-response experiment against freshly immobilised WT HSC70-NBD and the […] HSC70-NBD mutants using the same experimental protocol as for the primary screen. Compound dilutions of 50, 100 and 200 μM were generated using the ECHO 550. A confirmed hit was defined as a fragment giving greater than 10% response compared to adenosine and these were prioritised on the basis of their concentration response, ratio of experimental and theoretical Rmax, and shape of the sensorgrams, and expected fast on/fast off binding kinetics. […] HSC70-NBD mutant. […] Nucleotides were dissolved in double distilled water to give 10 mM stock solutions, then diluted 40X with DMSO and tested using a concentration range between 0.0625 μM and 2.5 μM.

[6] = biological target: T5, HSP72 (Homo sapiens, UniProt P0DMV8); assay: Ligand observed NMR (CPMG) binding to HSP72 with ATP competition; conditions: 0.5 mM compound, 20 µM HSP72, ± 100 µM ATP; 1D CPMG
T5 construct: 6xHis followed by HRV 3C protease site (N); made in house; host or cells: E. coli BL21-AI
T5 sequence (P0DMV8 whole entry): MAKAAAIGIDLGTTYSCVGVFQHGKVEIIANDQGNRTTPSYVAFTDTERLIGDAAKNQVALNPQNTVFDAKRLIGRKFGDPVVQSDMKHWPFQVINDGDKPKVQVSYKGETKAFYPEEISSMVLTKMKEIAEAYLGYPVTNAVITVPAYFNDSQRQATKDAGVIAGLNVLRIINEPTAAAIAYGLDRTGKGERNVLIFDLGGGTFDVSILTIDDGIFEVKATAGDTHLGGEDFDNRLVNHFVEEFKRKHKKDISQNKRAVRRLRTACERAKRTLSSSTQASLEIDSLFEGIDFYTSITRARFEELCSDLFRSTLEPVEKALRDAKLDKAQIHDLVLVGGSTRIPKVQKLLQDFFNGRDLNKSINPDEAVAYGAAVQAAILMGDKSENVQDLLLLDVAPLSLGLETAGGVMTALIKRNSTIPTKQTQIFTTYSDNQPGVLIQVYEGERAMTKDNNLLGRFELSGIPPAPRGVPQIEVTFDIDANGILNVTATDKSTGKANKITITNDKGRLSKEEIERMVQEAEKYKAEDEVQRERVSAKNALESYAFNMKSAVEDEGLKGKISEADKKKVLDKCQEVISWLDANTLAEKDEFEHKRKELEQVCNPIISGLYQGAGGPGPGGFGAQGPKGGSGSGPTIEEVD
Method: Ligand observed NMR experiments
NMR experiments were conducted at a 1H frequency of 500 MHz using a Bruker Avance 500 spectrometer (Bruker, […]) equipped with a 1.7 mm TXI probe. All data were acquired and processed using Bruker Topspin 3.2. The Relaxation edited 1H-NMR spectrum was acquired at 295K using the CPMG sequence with a spin-lock time of 600 ms. The water signal was suppressed using presaturation during relaxation delay (2 s) and by using the Watergate sequence subsequent to the CPMG sequence. For each spectrum 64 transients were acquired. The three samples for which spectra were collected consisted of 50 mM phosphate buffer at pH 7.5, 10% (v/v) D2O and 0.5 mM compound 30, 0.5 mM compound 30 in the presence of 20 µM HSP72, and 0.5 mM compound 30 in the presence of 20 µM HSP72 and 100 µM ATP respectively (see Figure S 8).

Row | SMILES | binding to S275W HSC70-NBD mutant (in words) [1] | Kd [2] [µM] | binding to S275F HSC70-NBD mutant (in words) [3] | Kd ([4]; mean ± SD, No binding = binding level ≤10RU at 1mM) [µM] | LE (ligand efficiency) [4] | Kd [5] [µM] | Kd S275W HSC70-NBD ([1]; single measurement) | Kd ([4]; mean ± standard deviation or standard error, triplicate unless marked duplicate/single) [µM] | binding to HSP72 by ligand observed NMR [6]
1 | N#Cc1ccc(COC[C@H]2O[C@@H](n3c(NCc4ccc(Cl)c(Cl)c4)nc4c(N)ncnc43)[C@H](O)[C@@H]2O)cc1 [Compound 1, VER-155008] | abolished binding | 0.3 | abolished binding | – | – | – | – | – | –
2 | Nc1ncnc2c1ncn2[C@@H]1O[C@H](CO)[C@@H](O)[C@H]1O [Adenosine, adenosine, reference compound] | abolished binding | – | abolished binding | 165 | 0.28 | 1800 ± 520 | – | – | –
3 | OC[C@H]1C[C@@H](Nc2ncnc3cccc(OCc4ccccn4)c23)[C@H](O)[C@@H]1O [Compound 30] | – | – | – | – | 0.20 | – | No binding | 75 | bind in the ATP-binding site
